Consider seven molecules from patent publication US11492335B2, “Aryl or heteroaryl triazolone derivatives or salts thereof, or pharmaceutical compositions comprising the same” (YUHAN CORPORATION, priority 2018, dated 2022).

Holding throughout (type): biochemical
In one experiment the target is T1, recombinant human VAP-1 (Homo sapiens, UniProt Q16853).
T1 construct: purchased R&D systems
T1 sequence (Q16853 1-763): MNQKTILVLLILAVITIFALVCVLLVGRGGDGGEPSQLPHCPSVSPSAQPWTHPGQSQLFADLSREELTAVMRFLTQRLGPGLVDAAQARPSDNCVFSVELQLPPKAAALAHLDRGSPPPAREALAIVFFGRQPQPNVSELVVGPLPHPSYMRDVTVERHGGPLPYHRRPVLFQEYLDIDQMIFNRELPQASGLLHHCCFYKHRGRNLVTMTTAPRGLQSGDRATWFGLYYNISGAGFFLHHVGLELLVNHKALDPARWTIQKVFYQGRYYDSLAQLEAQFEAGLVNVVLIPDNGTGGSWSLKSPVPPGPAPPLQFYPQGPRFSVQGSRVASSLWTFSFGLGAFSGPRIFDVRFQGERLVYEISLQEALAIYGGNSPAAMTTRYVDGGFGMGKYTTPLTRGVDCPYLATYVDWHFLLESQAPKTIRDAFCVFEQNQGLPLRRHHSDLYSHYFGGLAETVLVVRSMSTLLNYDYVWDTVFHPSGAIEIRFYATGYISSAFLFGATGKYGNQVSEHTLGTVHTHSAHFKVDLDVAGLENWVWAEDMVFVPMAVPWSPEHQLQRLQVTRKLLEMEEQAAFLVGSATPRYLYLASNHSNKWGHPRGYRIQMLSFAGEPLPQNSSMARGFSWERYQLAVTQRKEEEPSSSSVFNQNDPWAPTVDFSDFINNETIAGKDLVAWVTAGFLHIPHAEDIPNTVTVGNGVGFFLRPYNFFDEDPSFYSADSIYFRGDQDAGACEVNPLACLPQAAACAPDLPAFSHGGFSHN
Description: Activity on recombinant human VAP-1, Amplex Red HRP-coupled hydrogen peroxide assay, benzylamine substrate. The following applies: recombinant human VAP-1, benzylamine substrate, read-out: Inhibitory Activity (IC50, nM) human VAP-1. In outline: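 H2O2 generation from 1 mM benzylamine was coupled via 1 U/mL HRP to 200 uM Amplex Red; inhibitors, serially diluted 1:3 over 8 points with under 1% final DMSO, had been preincubated 30 min at 37 °C. IC50 from percentage drop in rate.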

The target of experiment [1] is T2, recombinant human MAO-A (monoamine oxidase-A) (Homo sapiens, UniProt P21397).
T2 construct: purchased Sigma-Aldrich
T2 sequence (P21397 1-527): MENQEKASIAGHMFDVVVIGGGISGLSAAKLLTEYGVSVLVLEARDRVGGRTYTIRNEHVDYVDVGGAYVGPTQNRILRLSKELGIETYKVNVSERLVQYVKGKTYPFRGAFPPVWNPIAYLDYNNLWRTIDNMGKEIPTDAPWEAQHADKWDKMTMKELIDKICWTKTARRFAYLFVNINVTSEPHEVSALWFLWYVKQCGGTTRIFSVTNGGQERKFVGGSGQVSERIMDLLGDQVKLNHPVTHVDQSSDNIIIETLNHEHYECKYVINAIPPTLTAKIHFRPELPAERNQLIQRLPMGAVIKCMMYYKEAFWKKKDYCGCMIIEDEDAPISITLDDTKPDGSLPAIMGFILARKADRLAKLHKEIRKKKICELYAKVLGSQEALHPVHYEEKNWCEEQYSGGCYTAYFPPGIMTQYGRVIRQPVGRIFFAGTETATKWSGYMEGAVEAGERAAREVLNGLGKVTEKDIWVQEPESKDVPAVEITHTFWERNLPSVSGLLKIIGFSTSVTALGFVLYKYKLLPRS
Description: Activity on recombinant human MAO-A, Amplex Red method, 0.5 mM tyramine substrate. The conditions noted are these: read-out: Inhibitory Activity (IC50, nM) MAO-A. The method, then: (§1) The compounds according to the present technology were evaluated in terms of activity on recombinant human VAP-1 (R&D systems) by measuring the level of hydrogen peroxide in horseradish peroxidase (HRP)-coupled reaction using Amplex Red Hydrogen Peroxide Assay Kit (Molecular Probes, Invitrogen, USA). The experiment was carried out at room temperature using benzylamine as a substrate. In the HRP-coupled reaction, hydrogen peroxide oxidation of 10-acetyl-3,7-dihydroxyphenoxazine (Amplex Red reagent) produces resorufin, which is a highly fluorescent compound. Briefly, the test compound was dissolved in dimethyl sulfoxide (DMSO) at a concentration of 20 mM. The dose-response assessment was made by 1:3 serial dilution in DMSO, thereby creating an 8 point curve. The concentration of the upper part was controlled according to the efficacy of the compounds, followed by dilution with a reaction buffer solution to obtain a final DMSO concentration less than 1%. To each well of a 96 black well plate, human VAP-1 purified in 50 mM sodium phosphate buffer solution (pH7.4) was added. The test compounds dissolved in DMSO were incubated with the human VAP-1 enzymes at 37° C. for 30 minutes. After 30-minute incubation, each well is added with a reaction mixture containing 200 uM Amplex Red reagent prepared from 50 mM sodium phosphate buffer solution (pH 7.4), 1 mM benzylamine, and 1 U/mL HRP. Fluorescence intensity was measured at several time points during 1-2 hours using a microplate reader (Flexstation3, Molecular Devices) under the wavelength condition exciting at 544 nm and reading the emission at 590 nm. The inhibitory effect of the compounds was measured as a decrease (%) in the signal rate as compared to the control group without any inhibitor (only diluted DMSO). Data was fixed to a logistic model with four variables and IC50 value was calculated using GraphPad Prism program.
(§2) In addition, the compounds according to the present technology were evaluated in terms of activity on a recombinant human MAO-A (monoamine oxidase-A, Sigma-Aldrich) and a recombinant human MAO-B (monoamine oxidase-B, Sigma-Aldrich) by using as substrates, 0.5 mM tyramine and 1 mM benzylamine, respectively, with a method similar to the activity evaluation method for recombinant human VAP-1. The compounds according to the present technology were also evaluated in terms of activity on a recombinant human DAO (diamine oxidase, R&D systems) by using as a substrate 1 mM putrescine with a method similar to the activity evaluation method for recombinant human VAP-1.

In experiment [2] the target is T3, recombinant human MAO-B (monoamine oxidase-B) (Homo sapiens, UniProt P27338).
T3 construct: purchased Sigma-Aldrich
T3 sequence (P27338 1-520): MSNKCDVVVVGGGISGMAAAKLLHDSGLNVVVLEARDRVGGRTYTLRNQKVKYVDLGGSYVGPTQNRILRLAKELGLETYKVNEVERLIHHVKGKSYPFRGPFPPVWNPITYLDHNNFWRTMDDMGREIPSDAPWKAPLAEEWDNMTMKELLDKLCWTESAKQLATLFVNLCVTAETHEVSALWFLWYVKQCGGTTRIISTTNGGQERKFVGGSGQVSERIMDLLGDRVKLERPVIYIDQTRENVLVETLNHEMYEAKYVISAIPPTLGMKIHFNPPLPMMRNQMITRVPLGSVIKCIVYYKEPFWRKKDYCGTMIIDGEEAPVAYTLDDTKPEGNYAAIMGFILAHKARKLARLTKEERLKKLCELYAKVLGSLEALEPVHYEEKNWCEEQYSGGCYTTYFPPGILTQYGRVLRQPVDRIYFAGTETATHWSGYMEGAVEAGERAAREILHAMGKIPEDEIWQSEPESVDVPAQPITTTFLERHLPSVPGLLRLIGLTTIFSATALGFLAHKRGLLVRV
Put plainly: Activity on recombinant human MAO-B, Amplex Red method, 1 mM benzylamine substrate. The conditions noted are these: read-out: Inhibitory Activity (IC50, nM) MAO-B. The method, then: as §1, §2

The target in experiment [3] is T4, recombinant human DAO (diamine oxidase) (Homo sapiens, UniProt P19801).
T4 construct: purchased R&D systems
T4 sequence (P19801 20-751): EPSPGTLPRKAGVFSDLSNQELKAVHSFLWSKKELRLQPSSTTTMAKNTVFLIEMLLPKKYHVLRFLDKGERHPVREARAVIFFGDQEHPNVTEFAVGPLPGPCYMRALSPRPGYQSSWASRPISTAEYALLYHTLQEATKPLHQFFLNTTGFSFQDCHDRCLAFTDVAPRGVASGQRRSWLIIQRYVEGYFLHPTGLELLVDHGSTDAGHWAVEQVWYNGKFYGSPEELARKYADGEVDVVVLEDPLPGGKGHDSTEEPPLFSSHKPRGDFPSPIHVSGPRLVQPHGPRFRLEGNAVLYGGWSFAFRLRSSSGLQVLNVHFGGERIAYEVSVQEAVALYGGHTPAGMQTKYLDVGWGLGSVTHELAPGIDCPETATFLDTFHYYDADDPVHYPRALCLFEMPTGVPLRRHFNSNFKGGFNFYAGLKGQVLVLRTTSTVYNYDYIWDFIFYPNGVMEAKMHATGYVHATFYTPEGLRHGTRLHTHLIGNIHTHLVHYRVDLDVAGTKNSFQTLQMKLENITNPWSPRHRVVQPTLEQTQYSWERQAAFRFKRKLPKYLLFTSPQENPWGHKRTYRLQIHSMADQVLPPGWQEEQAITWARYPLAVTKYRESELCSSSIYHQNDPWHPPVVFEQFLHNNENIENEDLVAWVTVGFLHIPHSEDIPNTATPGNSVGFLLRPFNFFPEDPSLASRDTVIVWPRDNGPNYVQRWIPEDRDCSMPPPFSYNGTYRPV
Description: Activity on recombinant human DAO, Amplex Red method, 1 mM putrescine substrate. The conditions noted are these: recombinant human DAO, read-out: Inhibitory Activity (IC50, nM) DAO. An outline of the steps: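 Inhibition of recombinant human DAO (diamine oxidase, R&D systems) was assessed with the Amplex Red Hydrogen Peroxide Assay Kit. Hydrogen peroxide produced from 1 mM putrescine was detected through an HRP-coupled reaction that converts Amplex Red into fluorescent resorufin, read at 544 nm excitation and 590 nm emission. IC50 values came from four-parameter logistic fits in GraphPad Prism.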

[4] abbreviates: 1 mM putrescine, * = between 10 and 100 nM, ** = between 300 and 1000 nM.

Where a name gives a salt, the structure may show the parent alone. Read-outs that look alike come from different tables or passages of the source. A value given as a limit tells only on which side of the number the result lay.

Broadly, the IC50 is the concentration needed to halve the response being measured. As for `Cn1cc(C#Cc2cccc(-n3cnn(C/C(=C/F)CN)c3=O)n2)cn1` [Example 257, 2-[(2E)-2-(aminomethyl)-3-fluoroprop-2-en-1-yl]-4-{6-[(1-methyl-1H-pyrazol-4-yl)ethynyl]pyridin-2-yl}-2,4-dihydro-3H-1,2,4-triazol-3-one hydrochloride], the IC50 at recombinant human VAP-1 was 0.4 nM; in experiment [1] (0.5 mM tyramine substrate) it was more than 100000 nM; in experiment [2] (1 mM benzylamine substrate) it was 5700 nM; in experiment [3] (1 mM putrescine substrate), 90 nM.

In the case of `NC/C(=C\F)Cn1ncn(-c2cnc(-c3ccc4cn[nH]c4c3)cn2)c1=O` [Example 223, 2-[(2E)-2-(aminomethyl)-3-fluoroprop-2-en-1-yl]-4-[5-(1H-indazol-6-yl)pyrazin-2-yl]-2,4-dihydro-3H-1,2,4-triazol-3-one], the IC50 on recombinant human VAP-1 was 2.2 nM; in experiment [1] (0.5 mM tyramine substrate), 21700 nM; in experiment [2] (1 mM benzylamine substrate), 10.5 nM; in experiment [3] (1 mM putrescine substrate) it was less than 100 nM.

Take `NC/C(=C\F)Cn1ncn(-c2cccc(-c3ccc(N4CCOCC4)nc3)c2)c1=O` [Example 86, 2-[(2E)-2-(aminomethyl)-3-fluoroprop-2-en-1-yl]-4-{3-[6-(morpholin-4-yl)pyridin-3-yl]phenyl}-2,4-dihydro-3H-1,2,4-triazol-3-one hydrochloride]: the IC50 at recombinant human VAP-1 (30 min preincubation at 37° C.) was 0.62 nM; in experiment [1] (0.5 mM tyramine), more than 100000 nM; in experiment [2] (1 mM benzylamine) it was 1230 nM; in experiment [3] (setting [4]), less than 100 nM.

For `NC/C(=C\F)Cn1ncn(-c2cccc(-c3ccc(N4CCOCC4)cc3)c2)c1=O` [Example 74, 2-[(2E)-2-(aminomethyl)-3-fluoroprop-2-en-1-yl]-4-[4′-(morpholin-4-yl)biphenyl-3-yl]-2,4-dihydro-3H-1,2,4-triazol-3-one hydrochloride], the IC50 at recombinant human VAP-1 (30 min preincubation at 37° C.) was 0.84 nM; in experiment [1] (0.5 mM tyramine), more than 100000 nM; in experiment [2] (1 mM benzylamine), more than 10000 nM; in experiment [3] (setting [4]), 282 nM.

Turning to `NC/C(=C/F)Cn1ncn(-c2nccs2)c1=O` [Example 39, 2-[(2Z)-2-(aminomethyl)-3-fluoroprop-2-en-1-yl]-4-(1,3-thiazol-2-yl)-2,4-dihydro-3H-1,2,4-triazol-3-one hydrochloride], the IC50 at recombinant human VAP-1 (30 min preincubation at 37° C.) worked out at 1.7 nM; in experiment [1] (0.5 mM tyramine), 5700 nM; in experiment [2] (1 mM benzylamine), 2100 nM; in experiment [3] (setting [4]) it was 30 nM.

For `CC(C)c1nc(-c2cccc(-c3cc(-n4cnn(C/C(=C/F)CN)c4=O)ccn3)c2)no1` [Example 206, 2-[(2E)-2-(aminomethyl)-3-fluoroprop-2-en-1-yl]-4-(2-{3-[5-(propan-2-yl)-1,2,4-oxadiazol-3-yl]phenyl}pyridin-4-yl)-2,4-dihydro-3H-1,2,4-triazol-3-one hydrochloride], the IC50 on recombinant human VAP-1 is 0.7 nM; in experiment [1] (0.5 mM tyramine substrate), more than 100000 nM; in experiment [2] (1 mM benzylamine substrate), 110 nM; in experiment [3] (1 mM putrescine substrate), less than 10 nM.

Take `CC(C)c1nc(-c2ccc(-c3cc(-n4cnn(C/C(=C/F)CN)c4=O)ccn3)cc2)no1` [Example 205, 2-[(2E)-2-(aminomethyl)-3-fluoroprop-2-en-1-yl]-4-(2-{4-[5-(propan-2-yl)-1,2,4-oxadiazol-3-yl]phenyl}pyridin-4-yl)-2,4-dihydro-3H-1,2,4-triazol-3-one hydrochloride]: the IC50 was 1 nM at recombinant human VAP-1, more than 100000 nM in experiment [1] (0.5 mM tyramine substrate), 240 nM in experiment [2] (1 mM benzylamine substrate) and less than 10 nM in experiment [3] (1 mM putrescine substrate).
